Measurements: patent EP3687536B1, “METHODS OF TREATING HEMOCHROMATOSIS AND RESPIRATORY DISORDERS” (MYMD PHARMACEUTICALS, INC., priority 2017, dated 2019)
Entries after “also recorded” stand apart in the source; their conditions may differ.

Assays:
MAO-A = molecular target: T1, MAO-A (Homo sapiens, UniProt P21397); assay: MAO-Glo luminescent assay, MAO-A inhibition; assay type: biochemical; conditions: for inhibiting the enzymatic activity of MAO-A (result in words): compared among isomyosmine, myosmine, anatabine, anabasine, nornicotine, clorgyline positive control, FIG. 3
T1 construct: purchased
T1 sequence (P21397 1-527): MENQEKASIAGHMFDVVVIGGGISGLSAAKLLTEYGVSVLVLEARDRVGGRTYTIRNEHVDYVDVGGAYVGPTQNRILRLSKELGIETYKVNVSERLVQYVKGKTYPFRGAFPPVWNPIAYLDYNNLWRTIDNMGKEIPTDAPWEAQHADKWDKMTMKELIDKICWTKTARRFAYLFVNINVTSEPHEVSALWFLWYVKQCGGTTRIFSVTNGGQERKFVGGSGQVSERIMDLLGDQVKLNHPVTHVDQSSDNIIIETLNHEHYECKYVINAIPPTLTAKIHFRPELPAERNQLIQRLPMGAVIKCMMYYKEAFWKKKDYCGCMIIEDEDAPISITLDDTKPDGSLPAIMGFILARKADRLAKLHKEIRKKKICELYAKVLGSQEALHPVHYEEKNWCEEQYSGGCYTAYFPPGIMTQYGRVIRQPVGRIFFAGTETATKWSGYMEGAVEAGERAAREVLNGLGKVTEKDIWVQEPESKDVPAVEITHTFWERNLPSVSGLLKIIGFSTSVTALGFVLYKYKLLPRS
Excerpt: (§1) This example describes experiments for determining monoamine oxidase (MAO) inhibition for isomyosmine and other alkaloids. MAOs are enzymes located on the outer membrane of mitochondria and are involved in the catabolism of monoamine neurotransmitters. There are two well-characterized isoenzymes: MAO-A, which predominantly catabolizes serotonin and norepinephrine, and MAO-B, which preferentially catabolizes benzylamine and phenylethylamine. Dopamine and tyramine are metabolized by both isoforms.
(§2) To detect the activity of MAO, a luminescent method (MAO-Glo Assay kit, from Promega, Cat # V1401) was used. In this method, a MAO substrate (a derivative of beetle luciferin provided in the kit) is mixed with the compound to be tested (in this case, myosmine and control compounds). Then, the MAO enzymes (either A or B, purchased separately) are added to the mixture and incubated with the reaction for 1 hour at room temperature. The MAO enzymes, if not inhibited by the test compound, will convert the substrate into methyl ester luciferin. Finally, a luciferin detection reagent (provided by the kit) is added (20 minutes at room temperature) to stop the MAO reaction and convert methyl ester luciferin into D-luciferin. D-luciferin reacts with luciferase to produce a luminescent signal, which is directly proportional to the D-luciferin concentration and thus the MAO activity: the greater the amount of light produced the higher the activity of MAO. The luminescent signal is measured and recorded using a luminometer.
The following materials were obtained from Toronto Research Chemicals, North York, ON: isomyosmine, catalog # 1821350; myosmine, catalog # M835000; anabasine, catalog # A637175; and nornicotine, catalog # N756995. Anatabine was obtained from Emerson Resources, Norristown, PA.

[1] = Topical administration for wound healing; assay type: in vivo; conditions: e.g. surgical incisions
Excerpt: A method, not falling within the scope of the claimed subject-matter, of treating a wound is also described herein which comprises administering to an individual in need thereof a pharmaceutical composition containing a therapeutically effective amount of isomyosmine or a pharmaceutically acceptable salt thereof.

[2] = Blood oxygen saturation (SpO2) by pulse oximetry in individuals; assay type: in vivo, human; conditions: seven individuals, one hour after single dose 50-100 mg
Excerpt: This example illustrates the effect of isomyosmine on normal blood oxygen saturation levels (SpO2). SpO2 refers to peripheral capillary oxygen saturation, an estimate of the amount of oxygen in the blood. More specifically, it is the percentage of oxygenated hemoglobin (hemoglobin containing oxygen) compared to the total amount of hemoglobin in the blood (oxygenated and non-oxygenated hemoglobin). SpO2 can be measured by pulse oximetry, an indirect, non-invasive method. It works by emitting and then absorbing a light wave passing through blood vessels (or capillaries) in the fingertip. A variation of the light wave passing through the finger will give the value of the SpO2 measurement because the degree of oxygen saturation causes variations in the blood's color.

MAO-B = molecular target: T2, MAO-B (Homo sapiens, UniProt P27338); assay: MAO-Glo luminescent assay, MAO-B inhibition; assay type: biochemical; conditions: compared among isomyosmine, myosmine, anatabine, anabasine, nornicotine; FIG. 4
T2 construct: purchased
T2 sequence (P27338 1-520): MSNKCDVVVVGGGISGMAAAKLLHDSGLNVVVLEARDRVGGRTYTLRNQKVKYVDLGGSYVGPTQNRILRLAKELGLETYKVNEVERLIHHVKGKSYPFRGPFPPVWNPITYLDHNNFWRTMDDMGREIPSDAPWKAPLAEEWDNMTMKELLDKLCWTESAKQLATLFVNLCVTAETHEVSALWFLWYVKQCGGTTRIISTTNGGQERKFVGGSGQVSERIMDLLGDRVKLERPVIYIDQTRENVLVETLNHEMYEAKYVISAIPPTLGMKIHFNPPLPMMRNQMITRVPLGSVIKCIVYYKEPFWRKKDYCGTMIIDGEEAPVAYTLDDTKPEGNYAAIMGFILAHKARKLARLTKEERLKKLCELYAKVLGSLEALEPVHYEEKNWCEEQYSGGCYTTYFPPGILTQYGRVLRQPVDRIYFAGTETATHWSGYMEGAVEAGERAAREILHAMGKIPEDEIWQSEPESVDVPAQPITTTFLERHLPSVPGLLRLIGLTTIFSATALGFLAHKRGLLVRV
Excerpt: as §1
as §2, with “D-luciferin reacts with luciferase to produce a luminescent signal, which is directly proportional to the D-luciferin concentration and thus the MAO activity: the greater the amount of light produced the higher the activity of MAO.” left out, “luminometer. […]” for “luminometer.”

Structure (SMILES) | inhibiting the enzymatic activity of MAO-A (result in words) (MAO-A) | wound healing (result in words) [1] | inhibiting the enzymatic activity of MAO-A (result in words) (MAO-A; listed as Isomyosmine) | inhibition at 2000 µM (MAO-A; read-out: inhibition of MAO-A) [%] | blood oxygenation (result in words) [2] | inhibiting the activity of MAO-B (result in words) (MAO-B)
C#CCN(C)CCCOc1ccc(Cl)cc1Cl [clorgyline, reference compound] | greatly shifted leftward | – | – | – | – | –
C1=NC(c2cccnc2)CC1 (stereo not shown) [isomyosmine, 3-(3,4-dihydro-2H-pyrrol-2-yl)-pyridine] | most potent of the five | dramatically improve healing | potent inhibitor | ~50 | significant increase in blood oxygenation | most potent among the five alkaloids tested; also recorded: potent inhibitor
